From patent US10471054B2, “CDK1 inhibitors of acetyl chrysin mannich base derivatives, synthesis and use thereof” (priority 2016, dated 2019)

Columns and labels:
[1] = Protein binding rate and reversible binding rate; format: in vitro ADME; conditions: plasma proteins
Experimental: (§1) The combination of drugs and plasma proteins is usually reversible, and the affinity strength is determined by the reversible binding rate of the drug-protein complex. Only free drugs can spread to the tissue through the lipid membrane. By modifying the structure of the drug, the effect of the drug on the target site can be improved by improving the reversible binding rate of the drug-protein complex.
(§2) The acidic part of polyphenol hydroxyl group is combined with lysine alkaline site in albumin structure. The protein binding rate and reversible binding rate of CH-j see TABLE 2.

plasma proteins = assay: Protein binding rate and reversible binding rate; format: in vitro ADME
Experimental: as §1, §2

CDK1 = CDK1 (Homo sapiens, UniProt P06493); assay: CDK1 inhibition activity; format: biochemical
BGC-823 [2] = assay: Annexin V-FITC-PI double fluorescence, apoptosis and necrosis; format: cell-based; conditions: 24 h
From the text: There is a series of morphological characteristic changes in the apoptosis of cells, in which the change of the plasma membrane is one of the characteristics of early apoptosis. The cytoplasm is flipped from the inside of the cytoplasm to the outer surface of the cell when the cell apoptosis, Annexin V is a Ca^++ dependent phospholipid binding protein, which has a high affinity with phospholipid-peptide-serine, which can be combined with the phospholipid peptide specificity that is exposed to the extracellular cells. However, cytoplasm transfer to cell membrane is not unique to apoptosis, but also can occur in cell necrosis. The difference between the two cell death modes is that the cell membrane is intact in the initial stage of apoptosis, and the integrity of the cell membrane in its early stage is destroyed. PI is a nucleic acid dye that cannot pass through the intact cell membrane, but in the cell and necrotic cells in the middle and late stage of apoptosis, the PI can dye the nucleus through the cell membrane. Annexin V-FITC-PI was used to detect apoptosis and necrotic cell ratio on flow cytometry.
A relatively small increase in apoptotic cells is increased.
FIG. 3-3 Annexin V-FITC/PI staining results for BGC-823.

HIF-1α = HIF-1α expression in BGC-823, immune-printing; format: cell-based; conditions: 0, 2.5, 5, 10 μM for 1 h, then insulin
Experimental: (§3) BGC-823 was treated with 0, 2.5, 5, 10 μM CH-j for 1 h, then the 2 μM insulin was added, and 2 h were cultured, and the cells were collected and lysed.
(§4) FIG. 4: CH-j effect on the HIF-1 of BGC-823 was treated with 0, 2.5, 5, 10 μM CH-j for 1 h, then added 0.2 μM insulin culture for 24 h, and the HIF-1α and HIF-1β were determined by the immune imprinting method.

BGC-823 [3] = assay: Anti-cancer cells proliferation activity (MTT, 48 h); format: cell-based; conditions: Homo sapiens, BGC-823, MTT
Experimental: Anti-cancer cells proliferationactivity of in vitro CH-j and CH-f were shown in TABLE 2 for the results of the screening of 5 cancers cells.
FIG. 2: The initial screening results of the anticancer activity of BGC-823 (MTT, for 48 h), and X-coordinate is the drug concentration (MTT, for 48 h), and Y-coordinate the cell survival rate (%) in vitro.

H-460 xenograft = H-460 xenograft in BALB/c nude mouse; format: in vivo; conditions: compared with before
Experimental: The anti-tumor effect of the BALB/c nude mouse model of the non-small cell lung cancer (H-460) was determined by the method [Scientific Reports, 2015, 5: 13626], and the results were shown in FIG. 7. 5 or 10 mg/kg of CH-j, for twice daily 10 days were compared with the control group.
FIG. 7: H-460 carcinoma in male BALB/c nude mice xenograft model, two times a day to fill the stomach to CH-j 5 and 10 mg/kg, for 10 days in a row, X-coordinate is experimental time (days), and Y-coordinate vertical volume of H-460 carcinoma (mm^3).

[4] = Pharmacokinetics by oral in monkey (urine drug concentration-time curve); format: in vivo; conditions: rhesus, monkey (n = 6), 3 mg/kg
MCF-7 = assay: Autophagy in MCF-7; format: cell-based; conditions: 50 μM for 9 h and 24 h
caspase-3, 8, 9 = assay: Caspase activity in BGC-823; format: cell-based; conditions: range of 0-10 μM, 24 h
From the text: Caspase is a series of cysteinyl aspartate specific proteinase in the cytoplasm of protease with closely related to cell apoptosis, and participate in cell growth, differentiation and apoptosis regulation. Caspase is same key enzymes in apoptosis process and in the apoptosis of the mediated cells, there are almost all apoptotic signaling pathways involved in the pathway of caspase. […] Caspase-8 is an early starter for the induction of apoptosis, and the caspase-3 is the late executor. Pro-caspase-9 is dissociation with phosphorylation surviving, and inhibiting cell apoptosis and promoting division. Pro-caspase-9 by H2O2 is oxidized into caspase-9-S—S-caspase-9 with inhibiting cell division and inducing apoptosis. H2O2 can directly oxidize and activate caspase, hydrolyze antiapoptotic protein Bcl-2 and Bcl-xl substrate, so selectively induce apoptosis of cancer cells and reduce the damage of normal cells.
FIG. 3-4: caspases: X-coordinate is CH-j concentration (μM) and Y-coordinate the activity of caspase (%) for BGC-823.

BGC-823 and Hep G2 = assay: H2O2 level in cancer cells, PF1-H2O2 fluorescent probe; format: cell-based; conditions: BGC-823 and Hep G2, CH-j 5-10 μM
Experimental: The cells are cancer cells (MCF-7, GBC-823, Hep G2) and normal cells (Liver, COS-7, PBMCs). According to the literature [Scientific Reports, 2015, 5: 13626; Anti-cancer Agents in Medicinal Chemistry, 2016, 16: 914-924.], in vitro cultured cells was given to CH-j 25 μM for 3.5 h, added PF1-H2O2 selective fluorescence probe 10 μM for 0.5 h and detected the concentration of H2O2 in cells, and performed fluorescence imaging by results shown in FIG. 1.
FIG. 1-2: The effect of CH-j/BA-j to Hep G2 and BGC-382 in the levels of H2O2: in which the X-coordinate is the concentration of CH-j/BA-j concentration (μM), and Y-coordinate is the intracellular levels of H2O2 (μM) for 4 h with PF1-H2O2 10 μM by Fluorescence Microplater Reader (488 nm/525 nm).

HIF-1β = HIF-1β expression in BGC-823, immune-printing; format: cell-based; conditions: 0, 2.5, 5, 10 μM for 1 h, then insulin
Experimental: as §3, §4

Hep G2 = assay: NaOCl level, BODTPY-OCl fluorescent probe imaging; format: cell-based; conditions: CH-j 40 μM or HCPT 5 μM for 4 h
Experimental: In vitro cultured Hep G2 was given by BODTPY-OCl selective fluorescent probe 5 μM for 0.5 h, added CH-j 40 μM or HCPT 5 μM for 4 h, and performed fluorescence imaging.

Sequence of CDK1 (P06493 whole entry, species assumed): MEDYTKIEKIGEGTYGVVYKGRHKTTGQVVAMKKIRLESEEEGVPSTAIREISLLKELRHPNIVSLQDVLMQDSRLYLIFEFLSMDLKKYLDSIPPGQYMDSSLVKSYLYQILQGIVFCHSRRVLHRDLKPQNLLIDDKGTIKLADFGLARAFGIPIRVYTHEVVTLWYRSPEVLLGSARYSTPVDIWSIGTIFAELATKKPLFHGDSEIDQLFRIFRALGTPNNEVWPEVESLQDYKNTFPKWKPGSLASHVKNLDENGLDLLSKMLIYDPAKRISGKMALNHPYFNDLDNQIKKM
Sequence of CDK1 (P14635 whole entry partner, species assumed): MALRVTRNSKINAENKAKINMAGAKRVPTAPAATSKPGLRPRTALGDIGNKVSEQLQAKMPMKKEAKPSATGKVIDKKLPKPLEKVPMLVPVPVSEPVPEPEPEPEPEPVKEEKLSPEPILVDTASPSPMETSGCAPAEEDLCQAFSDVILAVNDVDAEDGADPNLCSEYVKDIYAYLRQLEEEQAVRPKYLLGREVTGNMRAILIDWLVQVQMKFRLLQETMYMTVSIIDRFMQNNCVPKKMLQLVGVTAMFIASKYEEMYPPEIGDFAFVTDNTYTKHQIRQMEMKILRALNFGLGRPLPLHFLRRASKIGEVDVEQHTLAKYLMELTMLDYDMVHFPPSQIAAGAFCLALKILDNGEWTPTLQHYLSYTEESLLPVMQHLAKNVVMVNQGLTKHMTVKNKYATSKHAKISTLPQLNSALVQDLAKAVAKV

CC(=O)c1c(O)c(CN2CCC(O)CC2)c2oc(-c3ccccc3)cc(=O)c2c1O [CH-j, 6-Acetyl-5,7-dihydroxy-8-(4-hydroxy-piperidin-1-ylmethyl)-2-phenyl-chromen-4-one]
fraction unbound ([1]; average of 3 concentrations, read-out: Protein binding rate AV (converted)): 0.14
fraction unbound at 12.5 μg/ml ([1]; drug concentration 12.5 μg/ml): 0.114
fraction unbound at 25 μg/ml ([1]; drug concentration 25 μg/ml): 0.156
fraction unbound at 50 μg/ml ([1]; drug concentration 50 μg/ml): 0.151
Reversie binding rate AV (plasma proteins; average of 3 concentrations): 90.0%
Reversie binding rate (plasma proteins; drug concentration 12.5 μg/ml): 90.3%
Reversie binding rate (plasma proteins; drug concentration 25 μg/ml): 89.6%
Reversie binding rate (plasma proteins; drug concentration 50 μg/ml): 90.1%
CDK1 inhibition, times stronger than BA-j (CDK1): about 2 times
CDK1 50% inhibitory concentration (CDK1; read-out: inhibiting CDK1 CC50): 150 nM
Apoptosis and necrosis by Annexin V-FITC-PI (BGC-823 [2]): induce apoptosis the BGC-823 with obvious dose-dependent manner
HIF-1α expression (HIF-1α): inhibited HIF-1α expression in a dose-dependent manner
IC50 (BGC-823 [3]): 6.3 ± 1.13 µM
Reduction rate of H-460 tumor (H-460 xenograft; 5 mg/kg twice daily 10 days): 90.5%±9.2%
Reduction rate of H-460 tumor (H-460 xenograft; 10 mg/kg twice daily 10 days): 95.2%±11.6%
AUC(0-inf) [4]: 20.4 µM·h
Autophagy (MCF-7): can cause autophagy
Activation of caspase-3, 8, 9 (caspase-3, 8, 9): activated caspase-3, 8, 9 both in a dose-dependent upward trend
Amount of H2O2 released, fold (BGC-823 and Hep G2): about 4 times
Maximum level of H2O2 in cells (BGC-823 and Hep G2; 4 h): 35 to 45 µM
HIF-1β expression (HIF-1β): without affecting the expression of HIF-1β
NaOCl, yellow green fluorescence (Hep G2): not present yellow green fluorescence
